{"source": "patent US8236789B2", "about": "“1-adamantyl azetidin-2-one derivatives and drugs containing same” (Kowa Company, Ltd., priority 2008, dated 2012)", "assay_type_in_all_cases": "biochemical", "key": {"human 11β-HSD1": {"target": "T1, human 11β-HSD1 (Homo sapiens, UniProt P28845)", "T1 construct": "expressed in transfected cells", "T1 sequence (P28845 whole entry)": "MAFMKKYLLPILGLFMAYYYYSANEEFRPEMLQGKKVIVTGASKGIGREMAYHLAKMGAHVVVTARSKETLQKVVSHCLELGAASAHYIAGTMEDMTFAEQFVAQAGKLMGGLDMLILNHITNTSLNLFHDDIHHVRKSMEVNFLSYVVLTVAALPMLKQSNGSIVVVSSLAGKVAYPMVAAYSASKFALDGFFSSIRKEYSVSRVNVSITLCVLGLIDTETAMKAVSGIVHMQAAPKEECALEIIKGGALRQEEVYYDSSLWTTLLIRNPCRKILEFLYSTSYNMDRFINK", "assay": "Enzyme inhibitory activity assay, lysate of HEK293 cells stably expressing human 11β-HSD1, cortisol by competitive ELISA", "conditions": "Table 1; cell lysate, 100 nmol/L cortisone, NADPH, 37° C. 1 hour; read-out: in vitro assay (IC50 uM) h HSD1", "procedure": "(§1) 1. Human 11β-HSD1-, Human 11β-HSD2- and Mouse 11β-HSD1-Gene Clonings and Establishment of Stably Expressing Cells\n(§2) Human 11β-HSD1- and human 11β-HSD2-expressing vectors were transfected into human kidney-derived cell line, HEK293 cells, using a transfection reagent, jet PEI (Funakoshi). Mouse 11β-HSD1 was transfected to Chinese hamster ovary-derived cell line, CHO-K1 cells. Selection was conducted with 200-400 μg/mL of zeocine (Invitrogen) to provide stably expressing-cell clones. The stably expressing cells were suspended in buffer solution A (20 mmol/L Tris-HCl, pH 7.4, 250 mmol/L sucrose, 1 mmol/L EGTA, 1 mmol/L EDTA, 1 mmol/L MgCl2), sonicated, and then stored at −80° C.\n(§3) 2. Assay of Enzyme Inhibitory Activity\n(§4) An enzymatic reaction was conducted using a polystyrene 96-well plate. Each well was added with 1 μL of a test agent dissolved in DMSO and then diluted (0.003 to 3 mmol/L), and further added with 10 μL of cell lysate diluted to a concentration of 0.1 mg/mL to 0.4 mg/mL. Next, 90 μL of buffer solution A containing substrate (100 nmol/L cortisone or cortisol) and coenzyme (400 μmol/L NADPH or NAD+) was added and the mixture was incubated at 37° C. for 1 hour. The enzymatic reaction was stopped by treating at 95° C. for 3 minutes. Cortisol that was present in the reaction solution was determined by a competitive ELISA shown below.\n(§5) Anti-rabbit IgG antibody (Chemi-con) diluted to 2 μg/mL with carbonate buffer solution (pH 9.6) was added in 100 μL each to a 96-well immuno plate (Nunc) and immobilized by an incubation at 4° C. overnight. […] After washed three times with buffer solution B containing 0.05% Tween 20, the plates were allowed to develop color by adding 100 μL, of color reagent, TMB (Moss). The color reaction was stopped by 25 μL of 1 mol/L sulfuric acid and the absorbance was determined at 450 nm with a microplate reader (Molecular Device, VersaMax)."}, "human 11β-HSD2": {"target": "T2, human 11β-HSD2 (Homo sapiens, UniProt P80365)", "T2 construct": "expressed in transfected cells", "T2 sequence (P80365 1-405)": "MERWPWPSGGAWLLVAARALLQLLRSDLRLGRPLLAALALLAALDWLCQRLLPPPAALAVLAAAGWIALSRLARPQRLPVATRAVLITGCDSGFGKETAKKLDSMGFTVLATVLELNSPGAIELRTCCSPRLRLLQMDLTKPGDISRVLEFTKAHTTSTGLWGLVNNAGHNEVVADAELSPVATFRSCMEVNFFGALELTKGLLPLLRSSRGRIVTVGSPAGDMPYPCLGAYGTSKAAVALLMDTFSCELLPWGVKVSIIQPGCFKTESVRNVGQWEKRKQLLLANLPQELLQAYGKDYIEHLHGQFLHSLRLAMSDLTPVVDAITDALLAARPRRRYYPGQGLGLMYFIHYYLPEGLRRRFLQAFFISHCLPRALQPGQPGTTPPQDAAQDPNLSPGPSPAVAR", "assay": "Enzyme inhibitory activity assay, lysate of HEK293 cells stably expressing human 11β-HSD2, cortisol by competitive ELISA", "conditions": "Table 1; cell lysate, 100 nmol/L cortisol, NAD+, 37° C. 1 hour; read-out: in vitro assay (IC50 uM) h HSD2", "procedure": "as §1\nHuman 11β-HSD1-, human 11β-HSD2-, and mouse 11β-HSD1-gene clonings were conducted using as a template a reverse transcription product of human-liver RNA, human-kidney RNA (CELL APPLICATIONS), and mouse-kidney RNA respectively, by means of PCR cloning with reference to nucleotide sequences of Genbank Accession Nos. NM_005525, NM_000196, and NM_008288. The obtained PCR products of about 0.9 kbp, 1.2 kbp, and 0.9 kbp were subcloned into an expression vector pcDNA3.1+/Zeo (Invitrogen).\nas §2, §3, §4\nAnti-rabbit IgG antibody (Chemi-con) diluted to 2 μg/mL with carbonate buffer solution (pH 9.6) was added in 100 μL each to a 96-well immuno plate (Nunc) and immobilized by an incubation at 4° C. overnight. 50 μL of enzymatic reaction solution was put onto the plates, and further, anti-cortisol antibody (Cosmo Bio) and HRP-labeled cortisol (Cosmo Bio), diluted with buffer solution B (25 mmol/L Tris-HCl pH 7.4, 137 mmol/L NaCl, 2.68 mmol/L KCl), were added in 50 μL respectively and incubated at 4° C. overnight. After washed three times with buffer solution B containing 0.05% Tween 20, the plates were allowed to develop color by adding 100 μL, of color reagent, TMB (Moss). The color reaction was stopped by 25 μL of 1 mol/L sulfuric acid and the absorbance was determined at 450 nm with a microplate reader (Molecular Device, VersaMax).\nThe values of human 11β-HSD1, human 11β-HSD2, and mouse 11β-HSD1 activities were subtracted from 100, and the resultant values were regarded as the respective 11βHSD inhibition rates of example compounds. […] The comparison of human 11β-HSD1 and human 11β-HSD2 inhibiting activities is shown in Table 1, and the comparison of human 11β-HSD1 and mouse 11β-HSD1 inhibiting activities is shown in Table 2."}, "mouse 11β-HSD1": {"target": "T3, mouse 11β-HSD1 (Mus musculus, UniProt P50172)", "T3 construct": "expressed in transfected cells", "T3 sequence (P50172 whole entry)": "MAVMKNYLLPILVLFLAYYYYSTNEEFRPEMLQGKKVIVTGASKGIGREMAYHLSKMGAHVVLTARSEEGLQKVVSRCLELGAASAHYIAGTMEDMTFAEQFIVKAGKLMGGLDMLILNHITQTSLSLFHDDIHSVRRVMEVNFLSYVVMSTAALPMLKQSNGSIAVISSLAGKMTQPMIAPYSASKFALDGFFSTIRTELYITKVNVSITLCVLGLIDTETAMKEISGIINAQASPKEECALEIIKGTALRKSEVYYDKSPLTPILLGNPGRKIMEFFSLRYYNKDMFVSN", "assay": "Enzyme inhibitory activity assay, lysate of CHO-K1 cells stably expressing mouse 11β-HSD1, cortisol by competitive ELISA", "conditions": "Table 2; cell lysate, 100 nmol/L cortisone, NADPH, 37° C. 1 hour; read-out: in vitro assay (IC50 uM) m HSD1", "procedure": "as §1, §2, §3, §4, §5"}}}
{"compound": "CC1(C)C(=O)N(C2C3CC4CC(C3)CC2C4)C1C1(c2ccc(Cl)cc2)CC1", "note": "(stereo not drawn) [Example 70, 4-[1-(4-chlorophenyl)cyclopropyl]-1-(adamantan-2-yl)-3,3-dimethylazetidin-2-one]", "values": [{"measurement": "IC50", "setting": "human 11β-HSD1", "value": 0.11, "unit": "µM"}, {"measurement": "IC50", "setting": "human 11β-HSD2", "value": 4.1, "unit": "µM"}, {"measurement": "IC50", "setting": "mouse 11β-HSD1", "value": 0.0078, "unit": "µM"}]}
{"compound": "CC1(C)C(=O)N(C2C3CC4CC(C3)CC2C4)C1C1(c2ccccc2)CC1", "note": "(stereo not drawn) [Example 71, 1-(adamantan-2-yl)-3,3-dimethyl-4-(1-phenylcyclopropyl)azetidin-2-one]", "values": [{"measurement": "IC50", "setting": "human 11β-HSD1", "value": 0.059, "unit": "µM"}, {"measurement": "IC50", "setting": "human 11β-HSD2", "value": 4.3, "unit": "µM"}, {"measurement": "IC50", "setting": "mouse 11β-HSD1", "value": 0.0061, "unit": "µM"}]}
